Source: paper PMC2568824, “Dibutyltin Disrupts Glucocorticoid Receptor Function and Impairs Glucocorticoid-Induced Suppression of Cytokine Production” (PLoS ONE, 2008)
pIC50: −log10 of the molar value.

Assays:
[1] = target: T1, glucocorticoid receptor (GR-α) (Homo sapiens, UniProt P04150); experiment: inhibition of [3H]-dexamethasone binding in intact GR-transfected HEK-293 cells, overnight DBT preincubation ([…] for […] inhibition without preincubation); also transactivation reporter; assay type: cell-based; design: gene NR3C1; human GR-α, transiently expressed in HEK-293 cells
T1 sequence (P04150 1-777): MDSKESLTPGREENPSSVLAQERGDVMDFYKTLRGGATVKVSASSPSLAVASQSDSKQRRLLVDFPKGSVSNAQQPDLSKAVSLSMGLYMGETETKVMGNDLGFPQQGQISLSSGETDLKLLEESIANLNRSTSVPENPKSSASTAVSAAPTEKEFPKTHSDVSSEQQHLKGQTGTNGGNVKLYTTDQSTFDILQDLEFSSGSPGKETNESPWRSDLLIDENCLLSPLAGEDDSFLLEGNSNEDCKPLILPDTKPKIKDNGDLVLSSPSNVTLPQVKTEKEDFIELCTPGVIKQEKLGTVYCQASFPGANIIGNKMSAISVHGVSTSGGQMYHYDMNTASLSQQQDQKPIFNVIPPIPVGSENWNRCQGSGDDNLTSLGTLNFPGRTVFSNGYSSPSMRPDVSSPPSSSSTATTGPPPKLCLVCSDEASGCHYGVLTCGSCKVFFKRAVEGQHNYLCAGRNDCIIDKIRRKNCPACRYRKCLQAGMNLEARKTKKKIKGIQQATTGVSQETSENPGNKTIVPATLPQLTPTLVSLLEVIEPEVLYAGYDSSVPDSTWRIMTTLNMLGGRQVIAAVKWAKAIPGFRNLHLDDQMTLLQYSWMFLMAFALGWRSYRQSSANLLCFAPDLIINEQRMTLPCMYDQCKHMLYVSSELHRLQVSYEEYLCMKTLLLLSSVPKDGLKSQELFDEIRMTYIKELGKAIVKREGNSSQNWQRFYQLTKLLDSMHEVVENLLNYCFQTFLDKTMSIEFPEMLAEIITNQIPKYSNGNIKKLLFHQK

[2] = target: T1, glucocorticoid receptor (GR-α); design: gene NR3C1

Compound | pIC50 [1] | radioligand binding (10 nM [3H]-dexamethasone) and displacement by unlabeled dex [2]
dibutyltin [DBT] | ~7.30 | –
C[C@@H]1C[C@H]2[C@@H]3CCC4=CC(=O)C=C[C@]4(C)[C@@]3(F)[C@@H](O)C[C@]2(C)[C@@]1(O)C(=O)CO [Dex, dexamethasone] | – | Addition of unlabeled dexamethasone revealed a typical displacement pattern of tritiated dexamethasone in the presence or absence of DBT
